Where a SMILES comes first, the peptide text is derived from it. The star is where a group is joined. NHBn = c1ccc(CN*)cc1

Test [1] concerns the target T1, Nonstructural protein 3 (Zika virus, UniProt A0A024AXB9). As to the kind of experiment: Inhibition of Zika virus NS2B-NS3 protease.
For test [2], the target named is T1, Nonstructural protein 3. As to the kind of experiment: (§1) Inhibition of Zika virus NS2B-NS3 protease by cell based assay.
Test [3] is described as follows: Allosteric inhibition of Flavivirus NS2B-NS3 protease.
Test [4] in a line: Allosteric inhibition of Flavivirus NS2B-NS3 protease by cell based assay. Conditions: Orthoflavivirus.
The target of test [5] is T1, Nonstructural protein 3. As to the kind of experiment: Binding affinity to N-terminal His-tagged Zika virus NS2B-NS3 protease (1 to 187 residues) using Boc-Gly-Arg-Arg-AMC as substrate.
Test [6] addresses T1, Nonstructural protein 3. As to the kind of experiment: Inhibition of N-terminal His-tagged Zika virus NS2B-NS3 protease (1 to 187 residues) using Boc-Gly-Arg-Arg-AMC as substrate.
Test [7] addresses T2, Nonstructural protein 3 (Zika virus) (UniProt A0A024AXB9). As to the kind of experiment: Inhibition of Zika virus NS2B-NS3 protease assessed as as ratio of K(obs)/[I] using biotin-tagged peptide (P4-P1) as substrate.
For test [8], the target named is T3, Genome polyprotein (West Nile virus, UniProt P06935). As to the kind of experiment: Inhibition of West Nile virus NS2B-NS3 protease.
T3 sequence (P06935 1371-1501 limits assumed): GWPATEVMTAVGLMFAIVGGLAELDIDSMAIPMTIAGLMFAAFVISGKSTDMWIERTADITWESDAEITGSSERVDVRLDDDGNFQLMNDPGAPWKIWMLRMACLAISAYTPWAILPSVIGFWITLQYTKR
T3 sequence (P06935 1502-2120 limits assumed): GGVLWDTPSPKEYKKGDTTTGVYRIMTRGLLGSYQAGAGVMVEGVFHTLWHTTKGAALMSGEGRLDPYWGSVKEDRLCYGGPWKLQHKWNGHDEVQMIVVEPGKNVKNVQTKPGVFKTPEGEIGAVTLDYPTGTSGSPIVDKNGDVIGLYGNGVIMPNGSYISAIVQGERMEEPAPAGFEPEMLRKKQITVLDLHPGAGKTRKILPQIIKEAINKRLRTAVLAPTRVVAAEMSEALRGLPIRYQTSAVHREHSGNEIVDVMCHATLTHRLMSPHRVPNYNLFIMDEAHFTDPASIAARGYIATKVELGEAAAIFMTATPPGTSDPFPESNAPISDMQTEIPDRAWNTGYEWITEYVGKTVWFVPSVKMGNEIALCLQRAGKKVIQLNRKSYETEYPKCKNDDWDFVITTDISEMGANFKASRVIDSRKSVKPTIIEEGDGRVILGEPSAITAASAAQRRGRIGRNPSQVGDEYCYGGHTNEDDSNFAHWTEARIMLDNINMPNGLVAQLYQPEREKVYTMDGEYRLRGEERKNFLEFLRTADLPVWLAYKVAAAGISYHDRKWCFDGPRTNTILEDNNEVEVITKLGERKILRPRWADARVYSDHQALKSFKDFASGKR
Test [9] concerns the target T1, Nonstructural protein 3. Put plainly: Binding affinity to Zika virus NS2B-NS3 protease.
For test [10], the target named is T3, Genome polyprotein. As to the kind of experiment: Binding affinity to West Nile virus NS2B-NS3 protease.
Test [11] addresses T2, Nonstructural protein 3 (Zika virus). The test is described as §1.
Test [12] deals with T1, Nonstructural protein 3. As to the kind of experiment: Allosteric inhibition of Zika virus NS2B-NS3 protease.

In turn, `CN[C@@H](C)C(=O)N[C@H]1CCCC[C@H]2CC[C@@H](C(=O)NC(c3ccccc3)c3ccccc3)N2C1=O` had an IC50 against Nonstructural protein 3 [1] of 0.1 µM.
`CC[C@H](NC(=O)[C@H](C)NC)C(=O)N1C[C@@H](O)C[C@H]1Cc1c(-c2[nH]c3cc(F)ccc3c2C[C@@H]2C[C@H](O)CN2C(=O)[C@H](CC)NC(=O)[C@H](C)NC)[nH]c2cc(F)ccc12` [BIRINAPANT] gave an EC50 at Nonstructural protein 3 [2] of 0.3 to 0.6 µM. Moreover, in test [3], half-maximal inhibition (IC50) required 0.2 µM.
As for `C[C@@H]1CN(CC(=O)N2CC(C)(C)c3nc(CO)c(Cc4ccc(F)cc4)cc32)[C@@H](CN2CCOC[C@H]2C)CN1` [ASTX-660], the Ki on Nonstructural protein 3 [1] is 0.8 to 8.9 µM.
In turn, `C[C@@H]1CN(CC(=O)N2CCCC2)CCN1` returned an IC50 in test [3] of 0.38 µM. Further, a half-maximal response in test [4] (EC50) required 1 µM.
For `CN[C@@H](C)C(=O)N[C@H]1CN(C(=O)CC(C)C)CC[C@H]2CC[C@@H](C(=O)NC(c3ccccc3)c3ccccc3)N2C1=O` [XEVINAPANT], at Nonstructural protein 3 [5], the Kd stood at 9 µM. Further, at Nonstructural protein 3 [6], the IC50 was found to be 4.1 µM and the Ki was found to be 13.5 µM.
Take `CN[C@@H](C)C(=O)N[C@H](C(=O)N1CCC[C@H]1c1nc(C(=O)c2ccc(F)cc2)cs1)C1CCCCC1`: the Ratio in test [7] amounted to 2.94 ×10⁶ /M/s.
For `CN[C@@H](C)C(=O)N[C@H](C(=O)N1CCC[C@H]1C(=O)Nc1sc(-c2ncco2)nc1-c1ccccc1)C1CCCCC1` [GDC-0917], the IC50 against Nonstructural protein 3 [1] came to 0.3 µM.
Take `CN[C@@H](C)C(=O)N[C@H]1CC[C@H]2CC[C@@H](C(=O)NC(c3ccccc3)c3ccccc3)N2C1=O`: the IC50 on Nonstructural protein 3 [1] and against Genome polyprotein [8] was 1.9 µM in each case. In addition, the Kd at Nonstructural protein 3 [9] and on Genome polyprotein [10] was 2 µM in each case.
Compound `CC(C)[C@H](NC(=O)[C@H](C)N)C(=O)N1CCC[C@H]1C(=O)NCc1ccccc1` (H-Ala-Val-Pro-NHBn) yielded a Ki on Nonstructural protein 3 [1] of 0.14 µM.
At Nonstructural protein 3 [1], `CN[C@@H](C)C(=O)N[C@H](C(=O)N1CC[C@H](C)[C@H]1C(=O)Nc1ccccc1-c1ncccn1)C1CCCCC1` returned a Ki of 0.43 µM.
For `O=C1OC2(c3ccccc31)c1cc(I)c(O)c(I)c1Oc1c2cc(I)c(O)c1I` [ERYTHROSINE], the EC50 on Nonstructural protein 3 [2] was 0.6 µM. This compound also had an IC50 against Nonstructural protein 3 [1] of 1.7 µM.
At Nonstructural protein 3 [1], `CCN(CCO)CCCC(C)Nc1ccnc2cc(Cl)ccc12` (stereo unspecified) [HYDROXYCHLOROQUINE] displayed a Ki of 92.3 µM.
In the case of `CC(C)C[C@H]1C(=O)N2CCC[C@H]2[C@]2(O)O[C@](NC(=O)[C@@H]3C=C4c5cccc6[nH]c(Br)c(c56)C[C@H]4N(C)C3)(C(C)C)C(=O)N12` [BROMOCRIPTINE], the EC50 at Nonstructural protein 3 [2] stood at 13 µM. Further, the IC50 at Nonstructural protein 3 [1] was found to be 21.6 µM.
Take `Cc1ccc(C(=O)Nc2ccc(S(=O)(=O)O)c3cc(S(=O)(=O)O)cc(S(=O)(=O)O)c23)cc1NC(=O)c1cccc(NC(=O)Nc2cccc(C(=O)Nc3cc(C(=O)Nc4ccc(S(=O)(=O)O)c5cc(S(=O)(=O)O)cc(S(=O)(=O)O)c45)ccc3C)c2)c1` [SURAMIN]: binding at Nonstructural protein 3 [2] was characterised by a dissociation constant (Kd) of 28 µM. The compound further came in with an IC50 against Nonstructural protein 3 [1] of 47 µM. In addition, the EC50 on Nonstructural protein 3 [9] was in the range of 1.93 to 39.8 µM.
With `Oc1cccc(-c2c3nc(c(-c4cccc(O)c4)c4ccc([nH]4)c(-c4cccc(O)c4)c4nc(c(-c5cccc(O)c5)c5ccc2[nH]5)CC4)C=C3)c1` [TEMOPORFIN], on Nonstructural protein 3 [2], the EC50 was 0.022 µM. The compound further displayed a 90% effect concentration (EC90) in test [11] of 0.12 µM. Besides, it took 1.1 µM to reach half-maximal inhibition on Nonstructural protein 3 [1] (IC50).
As for `CO[C@@H]1[C@@H](OC(N)=O)[C@@H](O)[C@H](Oc2ccc3c(O)c(NC(=O)c4ccc(O)c(CC=C(C)C)c4)c(=O)oc3c2C)OC1(C)C` [NOVOBIOCIN], the EC50 at Nonstructural protein 3 [2] is 24.8 µM. For the same compound, the IC50 against Nonstructural protein 3 [1] was determined as 14.2 µM.
For `C[C@@H]1CN(CC(=O)N2CC(C)(C)c3ncc(Cc4ccc(F)cc4)cc32)[C@@H](CN2CCOC[C@H]2C)CN1`, half-maximal inhibition against Nonstructural protein 3 [12] (IC50) was put at 0.82 µM.

The term IC50 denotes the midpoint of a concentration-inhibition curve. A lower IC50 goes with greater potency in that assay. The EC50 is the concentration needed to bring the measured effect to its halfway point. A low value points to an effect from little substance. For orientation: Ki means the equilibrium dissociation constant of an inhibitor or competing ligand from its target. A lower Ki goes with higher affinity. As a reminder, the Kd is the equilibrium constant for the complex coming apart. A high value points to lower affinity. One may read the EC90 as the point of the concentration-response curve where the effect stands at 90%. Higher therefore signals a need for much substance.

Values taken from ChEMBL document CHEMBL4619702, “Inhibitors of the Zika virus protease NS2B-NS3” (Bioorg Med Chem Lett, 2020).
